According to ChEMBL document CHEMBL4330129 (Bioorg Med Chem, 2019):
Values after ≈ are worked out from the molar mass of the structure shown. Active and inactive are the calls of the source. The rule behind the calls is not given here.

What was measured:
BACH1/MafK = BACH1/MafK (Homo sapiens, UniProt O14867+O60675); experiment: Inhibition of Bach1-Mafk interaction (unknown origin) by luciferase reporter gene based enzyme fragment complementation assay; assay type: protein assay
[1] = Apparent permeability across apical to basolateral side in MDCK-MDR1; assay type: ADME, cell-based, Canis lupus familiaris; conditions: dog
[2] = Binding affinity to FLAG/His-tagged Keap1 (unknown origin)/biotinylated full-length FLAG/His/Tev/Avi-tagged Cul3 (unknown origin) expressed in baculovirus infected Sf9 insect cells measured after 1 hr by TR-FRET assay; design: species or system Homo sapiens
[3] = Drug metabolism in rat assessed as (2R)-2-acetamido-3-[3-[[2-(dimethylamino)-3,4-dioxo-cyclobuten-1-yl]-methyl-amino]propylcarbamothioylsulfanyl]propanoic acid formation at 2 mg/kg, po; assay type: ADME, organism-based; conditions: in vivo
[4] = Solubility of the compound in FaSSIF at pH 6.5 using solid sample; assay type: physicochemical
[5] = test system: Kelch-like ECH-associated protein 1 (Homo sapiens), Q14145 [C151S]; experiment: Binding affinity to human N-terminal His6-tagged Keap1 C151S mutant (35 to 182 residues) expressed in baculovirus infected Sf9 insect cells assessed as cysteine-compound adduct formation at 15-fold molar excess measured after 1 hr by RP-LC/MS/MS analysis
[6] = (§1) Activation of Keap1/Cul3/Nrf2 in human BEAS2B cells assessed as increase in NQO1 levels measured after 48 hrs; assay type: cell-based; conditions: BEAS-2B
Homo sapiens [7] = species on record: Homo sapiens; experiment: as §1; assay type: cell-based
[8] = Apparent permeability across basolateral to apical side in MDCK-MDR1; assay type: ADME, cell-based, Canis lupus familiaris; conditions: dog
Mus musculus [9] = experiment: (§2) Antioxidant activity in C57BL/6J mouse model of cigarette smoking-induced oxidative stress assessed as inhibition of mononuclear cell infiltration at 0.1 to 100 umol/kg, po dosed 24 hrs prior to cigarette smoking followed by qd dosing with cigarette smoking for 3 days by Wright-Giemsa staining based hemocytometry; assay type: functional, organism-based
[10] = Lipophilicity, log D of the compound at pH 7.4 by chromatographic method; assay type: physicochemical; conditions: buffer
[11] = Stability of the compound at 23 degC using crystalline solid sample measured >3 years by 1H-NMR analysis; assay type: physicochemical
[12] = Drug metabolism in rat assessed as (2S)-2-amino-5-[[(1R)-2-(carboxymethylamino)-1-[3-[[2-(dimethylamino)-3,4-dioxo-cyclobuten-1-yl]-methyl-amino]propylcarbamothioylsulfanylmethyl]-2-oxo-ethyl]amino]-5-oxo-pentanoic acid formation at 2 mg/kg, po; assay type: ADME, organism-based; conditions: in vivo
[13] = Kinetic solubility of the compound at pH 7.4 by CLND method; assay type: physicochemical; conditions: buffer, read-out: Kinetic_solubility
Mus musculus [14] = experiment: as §2, with “total” for “mononuclear”; assay type: functional, organism-based
[15] = Stability of the compound at 23 degC using crystalline solid sample measured >3 years by LC/MS analysis; assay type: physicochemical
Keap1/Nrf2 = Keap1/Nrf2 (Homo sapiens, UniProt Q14145+Q16236); experiment: Binding affinity to FLAG/His-tagged Keap1 (unknown origin)/biotinylated full-length FLAG/His/Tev/Avi-tagged NRF2 (unknown origin) expressed in baculovirus infected Sf9 insect cells measured after 1 hr by TR-FRET assay
[16] = target: Kelch-like ECH-associated protein 1 (Homo sapiens) (UniProt Q14145); experiment: Binding affinity to wild-type human N-terminal His6-tagged Keap1 (35 to 178 residues) expressed in baculovirus infected Sf9 insect cells assessed as cysteine-compound adduct formation at 15-fold molar excess measured after 1 hr by RP-LC/MS/MS analysis
Mus musculus [17] = experiment: as §2, with “neutrophil” for “mononuclear cell”; assay type: functional, organism-based
Mus musculus [18] = experiment: Antioxidant activity in po dosed C57BL/6J mouse model of cigarette smoking-induced oxidative stress assessed as inhibition of neutrophil infiltration dosed 24 hrs prior to cigarette smoking followed by qd dosing with cigarette smoking for 3 days by Wright-Giemsa staining based hemocytometry; assay type: functional, organism-based
Homo sapiens [19] = species on record: Homo sapiens; experiment: Activation of Keap1/Cul3/Nrf2 in NHBE cells assessed as induction of HO-1 gene expression at 10 uM after 24 hrs by RT-PCR analysis relative to SFN; assay type: cell-based

Keap1/Nrf2, sequence (Q16236 whole entry, the tested form may be a part): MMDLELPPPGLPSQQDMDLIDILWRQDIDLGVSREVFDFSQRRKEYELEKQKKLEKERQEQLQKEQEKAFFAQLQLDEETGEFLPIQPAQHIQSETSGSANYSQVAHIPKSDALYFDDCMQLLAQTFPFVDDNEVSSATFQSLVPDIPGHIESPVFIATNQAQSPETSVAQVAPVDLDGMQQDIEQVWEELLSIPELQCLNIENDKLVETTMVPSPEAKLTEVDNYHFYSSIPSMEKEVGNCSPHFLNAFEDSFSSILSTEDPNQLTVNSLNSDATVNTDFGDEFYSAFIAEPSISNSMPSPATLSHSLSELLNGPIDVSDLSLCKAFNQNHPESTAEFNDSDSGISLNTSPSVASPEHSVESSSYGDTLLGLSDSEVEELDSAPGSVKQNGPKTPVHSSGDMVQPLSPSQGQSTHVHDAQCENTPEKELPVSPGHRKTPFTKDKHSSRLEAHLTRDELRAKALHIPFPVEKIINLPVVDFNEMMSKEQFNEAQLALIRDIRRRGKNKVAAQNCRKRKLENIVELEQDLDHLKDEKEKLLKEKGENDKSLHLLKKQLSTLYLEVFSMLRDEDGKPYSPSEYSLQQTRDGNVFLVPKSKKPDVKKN
Keap1/Nrf2, sequence (Q14145 whole entry, the tested form may be a part): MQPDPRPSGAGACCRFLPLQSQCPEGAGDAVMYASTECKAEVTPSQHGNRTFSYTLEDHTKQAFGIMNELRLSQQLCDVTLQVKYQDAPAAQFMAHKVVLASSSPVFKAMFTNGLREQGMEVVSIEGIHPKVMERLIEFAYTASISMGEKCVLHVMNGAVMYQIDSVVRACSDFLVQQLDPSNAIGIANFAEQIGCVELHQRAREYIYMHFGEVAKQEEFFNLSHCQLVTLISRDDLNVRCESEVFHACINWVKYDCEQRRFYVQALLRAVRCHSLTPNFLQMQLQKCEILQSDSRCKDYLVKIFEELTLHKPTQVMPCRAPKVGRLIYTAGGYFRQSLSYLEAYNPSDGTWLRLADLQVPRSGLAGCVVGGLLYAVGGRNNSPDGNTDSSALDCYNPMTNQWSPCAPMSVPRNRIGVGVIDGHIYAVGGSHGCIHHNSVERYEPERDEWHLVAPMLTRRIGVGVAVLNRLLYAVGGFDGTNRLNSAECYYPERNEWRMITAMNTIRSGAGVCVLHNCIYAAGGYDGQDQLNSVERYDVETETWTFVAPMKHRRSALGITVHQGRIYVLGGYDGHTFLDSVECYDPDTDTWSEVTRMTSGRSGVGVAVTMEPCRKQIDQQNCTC
Kelch-like ECH-associated protein 1 (Homo sapiens), sequence (Q14145 whole entry, the tested form may be a part): as above
BACH1/MafK, sequence (O60675 whole entry, the tested form may be a part): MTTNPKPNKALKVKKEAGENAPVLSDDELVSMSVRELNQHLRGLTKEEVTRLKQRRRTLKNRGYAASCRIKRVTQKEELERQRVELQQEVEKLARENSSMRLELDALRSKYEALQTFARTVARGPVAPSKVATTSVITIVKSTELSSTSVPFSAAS
BACH1/MafK, sequence (O14867 whole entry, the tested form may be a part): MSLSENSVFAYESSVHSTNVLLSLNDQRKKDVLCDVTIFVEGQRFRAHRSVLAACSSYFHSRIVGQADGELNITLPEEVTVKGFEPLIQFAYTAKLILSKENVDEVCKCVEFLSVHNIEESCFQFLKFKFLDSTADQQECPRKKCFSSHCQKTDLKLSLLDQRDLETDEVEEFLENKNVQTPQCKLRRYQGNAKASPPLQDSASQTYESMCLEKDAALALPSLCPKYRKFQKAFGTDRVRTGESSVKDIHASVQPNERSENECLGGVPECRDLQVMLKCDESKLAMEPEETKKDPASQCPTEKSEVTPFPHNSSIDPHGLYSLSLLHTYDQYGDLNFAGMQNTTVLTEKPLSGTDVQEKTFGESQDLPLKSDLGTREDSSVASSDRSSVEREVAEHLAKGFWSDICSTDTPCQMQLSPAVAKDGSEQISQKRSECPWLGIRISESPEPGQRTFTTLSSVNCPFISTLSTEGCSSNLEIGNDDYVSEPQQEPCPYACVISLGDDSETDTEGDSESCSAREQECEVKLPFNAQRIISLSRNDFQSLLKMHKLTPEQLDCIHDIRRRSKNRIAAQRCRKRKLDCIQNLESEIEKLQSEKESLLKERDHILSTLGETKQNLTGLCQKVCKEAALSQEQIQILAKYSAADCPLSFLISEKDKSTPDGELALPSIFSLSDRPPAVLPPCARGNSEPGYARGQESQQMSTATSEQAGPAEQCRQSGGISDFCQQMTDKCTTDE
Kelch-like ECH-associated protein 1 (Homo sapiens), Q14145 [C151S], sequence (Q14145 whole entry C151S, the tested form may be a part): as the sequence (Q14145 whole entry, the tested form may be a part) above, with C151S counted along it

Row | Structure (SMILES) | IC50 (BACH1/MafK) [µM] | pIC50 [2] | Activity [5] | EC50 [6] [µM] | chromatographic logD [10] | solubility kinetic [13] [µM] | IC50 (Keap1/Nrf2) [µM] | Activity [16] | fold change (FC) (Homo sapiens [19]) | other results
1 | CN(C)c1c(N(C)CCCN=C=S)c(=O)c1=O | 3.16 | 4.3 | Active | 1.58 to 1.66 | 2.14 to 2.39 | ≥ 394 | > 100 | Active | 24.9 to 25 | Papp A→B [1]: 12.5 ×10⁻⁶ cm/s; Drug metabolism [3]: Metabolite_Detected; solubility thermodynamic [4]: 8000 µg/mL (≈ 31.6 mM); Activity (Homo sapiens [7]): Dose-dependent effect; Papp B→A [8]: 7.67 ×10⁻⁶ cm/s; inhibition (Mus musculus [9]): Active; Stability [11]: Stable; Drug metabolism [12]: Metabolite_Detected; inhibition (Mus musculus [14]): Active; Stability [15]: Stable; inhibition (Mus musculus [17]): Active; inhibition (Mus musculus [18]): Dose-dependent effect
2 | CC(=O)N[C@@H](CSC(=S)NCCCC[S+](C)[O-])C(=O)O (stereo not given in full) |  | < 4 |  | 1.58 | -0.67 | ≥ 357 | > 100 |  | 5.8 | 
3 | C[S+]([O-])CCCCNC(=S)SC[C@H](NC(=O)CC[C@H](N)C(=O)O)C(=O)NCC(=O)O (stereo not given in full) |  | < 4 |  | 1.58 | -0.75 | ≥ 290 | > 100 |  | 5.8 | 
4 | C[S+]([O-])CCCCN=C=S (racemic) [SULFORAPHANE] | 15.8 | < 4 | Active | 1.58 to 2.09 |  | 271 (≈ 48 µg/mL) |  | Active |  | 
5 | CC(=O)N[C@@H](CSC(=S)NCCCN(C)c1c(N(C)C)c(=O)c1=O)C(=O)O |  |  |  | 1.58 |  |  |  |  |  | 
